The text below walks through data of patent publication US4792545A, “Boholmycin antibiotic” (Bristol-Myers Company, priority 1986, dated 1988).

In brackets after ≈: the same amount, converted by molar mass. Like-named read-outs stand apart in the source and are kept apart here.

Assay [1] deals with E. coli D64. The experiment in a line: stimulating growth of streptomycin-dependent E. coli D64 (paper disc). Particulars: for Growth zone vs E. coli D64 / Growth zone vs E. coli D64, hazy growth zone: 37° C., 45 hours; for Growth zone vs E. coli D64, hazy growth zone: value in parentheses. Type of assay: cell-based. The source says: The results are shown in Table 4 wherein the term "boholmycin" is used for short in referring to boholmycin dihydrochloride tetrahydrate.

For assay [2], the system named is B. subtilis PCI-219. The experiment in a line: inhibiting growth of B. subtilis PCI-219 (paper disc). Type of assay: cell-based. As to conditions: for Inhibition zone vs B. subtilis PCI-219: 28° C., 18 hours. The protocol:
Boholmycin dihydrochloride tetrahydrate was tested in comparison with streptomycin, glebomycin, myomycin B and kanamycin in respect to stimulating growth of E. coli D64 and in respect to inhibiting growth of B. subtilis PCI-219. The results are shown in Table 4 wherein the term "boholmycin" is used for short in referring to boholmycin dihydrochloride tetrahydrate.
*^1 8 mm paper disc containing 35 μl of test solution
*^3 Incubation at 28° C. for 18 hours

Assay [3] relates to S. aureus 209P. The experiment in a line: MIC by serial agar dilution. Format: cell-based. As to conditions: Staphylococcus aureus, 209P.
The test system of assay [4] is S. aureus Smith. The experiment in a line: MIC by serial agar dilution. Format: cell-based. Particulars: Staphylococcus aureus. On the technique in general: Agar dilution tests growth on a series of plates holding different concentrations.
The subject of assay [5] is S. aureus A20239. As to the kind of experiment: MIC by serial agar dilution. Particulars: Staphylococcus aureus, A20239. Type of assay: cell-based.
For assay [6], the system named is M. luteus PCI-1001. As to the kind of experiment: MIC by serial agar dilution. Type of assay: cell-based. Particulars: Micrococcus luteus, PCI1001.
Assay [7] concerns M. flavus D-12. The experiment in a line: MIC by serial agar dilution. Format: cell-based. As to conditions: Micrococcus flavus, D12, medium A: Nutrient agar, read-out: MIC.
Assay [8] has as its system B. subtilis ATCC6633. As to the kind of experiment: MIC by serial agar dilution. Type of assay: cell-based. As to conditions: Bacillus subtilis, medium A: Nutrient agar, read-out: MIC.
In assay [9] the test system is B. anthracis IID-115. As to the kind of experiment: microbe, parasite or virus in culture. Type of assay: cell-based. Particulars: Bacillus anthracis, IID115.
In assay [10] the test system is E. coli NIHJ. The experiment in a line: MIC by serial agar dilution. Type of assay: cell-based. Particulars: Escherichia coli, medium A: Nutrient agar, read-out: MIC.
The subject of assay [11] is E. coli Juhl. As to the kind of experiment: MIC by serial agar dilution. Format: cell-based. As to conditions: Escherichia coli, medium A: Nutrient agar, read-out: MIC.
In assay [12] the test system is E. coli K-12. As to the kind of experiment: MIC by serial agar dilution. Type of assay: cell-based. As to conditions: Escherichia coli, K12, medium A: Nutrient agar, read-out: MIC.
Assay [13] has as its system E. coli A20664. The experiment in a line: MIC by serial agar dilution. Format: cell-based. Particulars: Escherichia coli; E. coli A20664, kanamycin resistant strain; medium A: Nutrient agar; read-out: MIC.
Assay [14] relates to E. coli JR35/c600. As to the kind of experiment: MIC by serial agar dilution. Type of assay: cell-based. As to conditions: Escherichia coli, JR35/C600.
Assay [15] concerns K. pneumoniae D-11. The experiment in a line: MIC by serial agar dilution. Type of assay: cell-based. Particulars: Klebsiella pneumoniae, D11, medium A: Nutrient agar, read-out: MIC.
The subject of assay [16] is K. pneumoniae A9678. As to the kind of experiment: MIC by serial agar dilution. Format: cell-based. Particulars: Klebsiella pneumoniae, medium A: Nutrient agar, read-out: MIC.
The subject of assay [17] is E. cloacae A20364. As to the kind of experiment: MIC by serial agar dilution. Type of assay: cell-based. Particulars: Enterobacter cloacae; E. cloacae A20364, kanamycin resistant strain; medium A: Nutrient agar; read-out: MIC.
Assay [18] concerns E. cloacae A21006. As to the kind of experiment: MIC by serial agar dilution. Format: cell-based. Particulars: Enterobacter cloacae; E. cloacae A21006, kanamycin resistant strain; medium A: Nutrient agar; read-out: MIC.
The test system of assay [19] is P. mirabilis A9554. The experiment in a line: MIC by serial agar dilution. Format: cell-based. Particulars: Proteus mirabilis, medium A: Nutrient agar, read-out: MIC.
Assay [20] concerns P. vulgaris A9436. As to the kind of experiment: MIC by serial agar dilution. Type of assay: cell-based. As to conditions: Proteus vulgaris, medium A: Nutrient agar, read-out: MIC.
Assay [21] deals with S. marcescens A20019. The experiment in a line: MIC by serial agar dilution. As to conditions: Serratia marcescens, A20019. Format: cell-based.
The subject of assay [22] is S. marcescens A22302. The experiment in a line: MIC by serial agar dilution. Particulars: Serratia marcescens, A22302. Type of assay: cell-based.
In assay [23] the test system is P. aeruginosa A9930. As to the kind of experiment: MIC by serial agar dilution. Format: cell-based. Particulars: Pseudomonas aeruginosa, medium A: Nutrient agar, read-out: MIC.
In assay [24] the test system is P. aeruginosa A9843A. The experiment in a line: microbe, parasite or virus in culture. Particulars: Pseudomonas aeruginosa, A9843A. Type of assay: cell-based.
The subject of assay [25] is P. aeruginosa A20601. The experiment in a line: MIC by serial agar dilution. Format: cell-based. Particulars: Pseudomonas aeruginosa; P. aeruginosa A20601, kanamycin resistant strain; medium A: Nutrient agar; read-out: MIC.
Assay [26] relates to Mycobacterium 607 D87. The experiment in a line: MIC by serial agar dilution. Particulars: Mycobacterium, 607D87. Type of assay: cell-based.
Assay [27] relates to Mycobacterium 607 D46. As to the kind of experiment: MIC by serial agar dilution. Format: cell-based. As to conditions: Mycobacterium 607 D46, kanamycin resistant strain; medium B: No. 1001 medium; read-out: MIC.
The subject of assay [28] is Mycobacterium phlei. The experiment in a line: MIC by serial agar dilution. Type of assay: cell-based. Particulars: Mycolicibacterium phlei.
In assay [29] the test system is Mycobacterium ranae. As to the kind of experiment: MIC by serial agar dilution. Format: cell-based. As to conditions: Mycobacterium.
Assay [30] has as its system S. aureus Smith. As to the kind of experiment: in vivo efficacy in mice against experimental infection. Particulars: Staphylococcus aureus, im, 120 h, read-out: PD50.
In assay [31] the test system is E. coli Juhl. Described as above. Particulars: Escherichia coli, im, 120 h, read-out: PD50.
In assay [32] the test system is K. pneumoniae D-11. The assay is described as above. As to conditions: Klebsiella pneumoniae, D11, im, 120 h, read-out: PD50.
The mark [33] stands for this setting: Bacillus subtilis, PCI219, 18 h, read-out: Inhibition zone vs B. subtilis PCI-219.

Take `CN[C@@H]1[C@H](O[C@H]2[C@H](O[C@H]3[C@H](O)[C@@H](O)[C@H](OC(N)=O)[C@@H](O)[C@@H]3N=C(N)N)O[C@@H](C)[C@]2(O)CO)O[C@@H](CO)[C@H](O)[C@H]1O` [glebomycin]: the entries for the “Growth zone vs E. coli D64” value in assay [1] (1 mg/ml) and in assay [1] (4 mg/ml) were 15 mm and 27 mm, respectively. Moreover, the “Inhibition zone vs B. subtilis PCI-219” value was 30 mm in assay [2] (1 mg/ml) and 33 mm in assay [2] (4 mg/ml).
As to `NC[C@H]1O[C@H](O[C@H]2[C@H](O)[C@@H](O[C@H]3O[C@H](CO)[C@@H](O)[C@H](N)[C@H]3O)[C@H](N)C[C@@H]2N)[C@H](O)[C@@H](O)[C@@H]1O` [kanamycin], the MIC in assay [3] is 0.8 µg/mL (≈ 1.65 µM); in assay [4] it was 0.4 µg/mL (≈ 0.826 µM); in [5], more than 100 µg/mL; in assay [6], 6.3 µg/mL (≈ 13 µM); in assay [7], 1.6 µg/mL (≈ 3.3 µM); in assay [8] it was 0.2 µg/mL (≈ 0.413 µM). Moreover, the MIC was 0.4 µg/mL (≈ 0.826 µM) in assay [9]; 0.8 µg/mL (≈ 1.65 µM) in assay [10]; 1.6 µg/mL (≈ 3.3 µM) in assay [11]; 0.8 µg/mL (≈ 1.65 µM) in [12]; more than 100 µg/mL in assay [13]; more than 100 µg/mL in assay [14]. In addition, the MIC was 0.4 µg/mL (≈ 0.826 µM) in [15]; 3.1 µg/mL (≈ 6.4 µM) in assay [16]; more than 100 µg/mL in [17]; more than 100 µg/mL in assay [18]; 0.8 µg/mL (≈ 1.65 µM) in assay [19]; 0.2 µg/mL (≈ 0.413 µM) in [20]. Besides, the MIC in assay [21] was 1.5 µg/mL (≈ 3.1 µM); in [22], 50 µg/mL (≈ 103 µM); in assay [23], 12.5 µg/mL (≈ 25.8 µM); in assay [24], 6.3 µg/mL (≈ 13 µM); in assay [25] it was more than 100 µg/mL; in assay [26] it was 0.2 µg/mL (≈ 0.413 µM). Moreover, the values for the MIC in assay [27], in assay [28] and in assay [29] were more than 100 µg/mL, 0.4 µg/mL (≈ 0.826 µM) and 0.2 µg/mL (≈ 0.413 µM), respectively. Also, the zone of inhibition at 100 µg/mL in [2] (setting [33]) was found to be 30 mm. The zone of inhibition at 400 µg/mL in assay [2] (setting [33]) was found to be 34 mm. Moreover, the figures for the ED50 in assay [30], in [31] and in assay [32] were 1.1 mg/kg, 3.5 mg/kg and 1.1 mg/kg, respectively.
With `[H]/N=C(/N)N[C@H]1[C@H](O)[C@@H](O)[C@H](O[C@@H]2O[C@@H](C)[C@](O)(C=O)[C@H]2O[C@@H]2O[C@@H](CO)[C@H](O)[C@@H](O)[C@@H]2NC)[C@@H](N/C(N)=N\[H])[C@@H]1O` [streptomycin], the MIC in assay [3] is 1.6 µg/mL (≈ 2.75 µM); in assay [4], 1.6 µg/mL (≈ 2.75 µM); in assay [5] it was more than 100 µg/mL; in [6], 3.1 µg/mL (≈ 5.33 µM); in [7] it was 0.8 µg/mL (≈ 1.38 µM); in assay [8], 0.8 µg/mL (≈ 1.38 µM). Moreover, the MIC is 0.4 µg/mL (≈ 0.688 µM) in assay [9]; 1.6 µg/mL (≈ 2.75 µM) in [10]; 3.1 µg/mL (≈ 5.33 µM) in [11]; 1.6 µg/mL (≈ 2.75 µM) in [12]; more than 100 µg/mL in assay [13]; more than 100 µg/mL in assay [14]. The MIC in assay [15] is 0.4 µg/mL (≈ 0.688 µM); in assay [16], 6.3 µg/mL (≈ 10.8 µM); in assay [17], more than 100 µg/mL; in [18], more than 100 µg/mL; in [19], 1.6 µg/mL (≈ 2.75 µM); in assay [20], 0.4 µg/mL (≈ 0.688 µM). Further, the MIC in [21] is 25 µg/mL (≈ 43 µM); in assay [22], more than 100 µg/mL; in assay [23], more than 100 µg/mL; in [24], more than 100 µg/mL; in [25], 3.1 µg/mL (≈ 5.33 µM); in [26], 0.4 µg/mL (≈ 0.688 µM). For the same molecule, the MIC in [27] came to 0.4 µg/mL (≈ 0.688 µM); in [28], 0.2 µg/mL (≈ 0.344 µM); in assay [29] it was 0.4 µg/mL (≈ 0.688 µM). Also, the “Growth zone vs E. coli D64, hazy growth zone” value in assay [1] (0.06 mg/ml) stood at 14 mm; in assay [1] (0.25 mg/ml) it was 28 mm. The “Growth zone vs E. coli D64” value in [1] (0.25 mg/ml) was 17 mm. In addition, in assay [2] (setting [33]), the zone of inhibition at 60 µg/mL was determined as 32 mm. Moreover, the zone of inhibition at 250 µg/mL in [2] (setting [33]) came out at 35 mm. The ED50 in assay [30] (mice, i.m. just before challenge, S. aureus Smith, 5 days observation) was 1.9 mg/kg; in assay [31] it was 1.4 mg/kg; in assay [32] (mice, i.m. just before challenge, K. pneumoniae D-11, 5 days observation) it was 0.85 mg/kg.
As to myomycin B, the “Growth zone vs E. coli D64, hazy growth zone” value in assay [1] (0.25 mg/ml) turned out to be 28 mm; in assay [1] (1 mg/ml), 34 mm. Moreover, the “Growth zone vs E. coli D64” value in [1] (1 mg/ml) is reported as 17 mm. Also, the “induction/stimulation of growth of streptomycin-dependent E. coli D64” value in assay [1] (result in words) is given as “stimulate the growth”. Further, the “Inhibition zone vs B. subtilis PCI-219” value in [2] (0.25 mg/ml) worked out at 29 mm; in assay [2] (1 mg/ml) it was 34 mm.
